Experimental data published in ChEMBL document CHEMBL2069226, “N-Aryl pyrrolidinonyl oxadiazoles as potent mGluR5 positive allosteric modulators” (Bioorg Med Chem Lett, 2012).
pEC50, pIC50, pKi: −log10 of the molar value. Converted amounts (≈) assume the structure as drawn.

Molecular target: T1, Metabotropic glutamate receptor 5 (Homo sapiens, UniProt P41594)
Test: Positive allosteric modulation of human mGluR5 expressed in HEK293A cells assessed as stimulation of glutamate-induced calcium flux by FLIPR method
Type: functional, cell-based, HEK293-A
Settings: not given

Row | Structure (SMILES) | pEC50
1 | O=C1CC(c2nc(-c3cccc(C(F)(F)F)c3)no2)CN1c1ccc(F)cc1 (configuration not stated) | < 5.00
2 | O=C1CC(c2nc(-c3ccc(F)cc3)no2)CN1c1ccc(Cl)c(Cl)c1 (configuration not stated) | 5.64
3 | Cc1cccc(N2CC(c3nc(-c4cccc(Cl)c4)no3)CC2=O)c1 (configuration not stated) | < 5.00
4 | O=c1oc2ccccc2n1Cc1nc(-c2cccc(Cl)c2)no1 | < 5.00
5 | Cc1ccccc1N1CC(c2nc(-c3cccc(Cl)c3)no2)CC1=O (configuration not stated) | < 5.00
6 | O=C1CC(c2nc(-c3cccc(Cl)c3)no2)CN1c1ccccc1Cl (configuration not stated) | < 5.00
7 | O=C1CC(c2nc(-c3ccc(Cl)cc3)no2)CN1c1ccc(Cl)c(Cl)c1 (configuration not stated) | 5.96
8 | Cc1cccc(-c2noc(C3CC(=O)N(c4ccc(Cl)c(Cl)c4)C3)n2)c1 (configuration not stated) | 6.41
9 | O=C1CCc2ccc(Cl)cc2N1CCc1nc(-c2cccc(Cl)c2)no1 | < 5.00
10 | COc1cccc(-c2noc(C3CC(=O)N(c4ccc(Cl)cc4)C3)n2)c1 (configuration not stated) | 5.32
11 | O=C1CC(c2nc(-c3cccc(Cl)c3)no2)CN1c1cccc(Cl)c1 (configuration not stated) | < 5.00
12 | COc1ccccc1N1CC(c2nc(-c3cccc(Cl)c3)no2)CC1=O (configuration not stated) | < 5.00
13 | Cc1ccc(N2CC(c3nc(-c4cccc(C)c4)no3)CC2=O)cc1 (configuration not stated) | 5.89
14 | Cc1ccc(N2CC(c3nc(-c4cccc(Cl)c4)no3)CC2=O)cc1 (configuration not stated) | 6.20
15 | O=C1CC(c2nc(-c3cccc(Cl)c3)no2)CN1c1ccccc1F (configuration not stated) | < 5.00
16 | O=C1CC(c2nc(-c3cccc(Cl)c3)no2)CN1c1ccc(Cl)c(Cl)c1 (configuration not stated) | 6.34

Molecules with a higher pEC50, results first:

Row | pEC50 | Structure (SMILES)
17 | 7.97 | O=C1CC(c2nc(-c3cccc(Cl)c3)no2)CN1c1ccc(F)cc1 (racemic)
18 | 8.06 | O=C1CC(c2nc(-c3cccc(Cl)c3)no2)CN1c1ccc(F)cc1 (single isomer, unassigned; (-))
19 | 6.51 | Cc1ccc(N2CC(c3nc(-c4cccc(Cl)c4)no3)CC2=O)cc1C (configuration not stated)
20 | 7.06 | O=C1CC(c2nc(-c3cccc(F)c3)no2)CN1c1ccc(F)cc1 (configuration not stated)
21 | 7.90 | Cc1cccc(-c2noc(C3CC(=O)N(c4ccc(F)cc4)C3)n2)c1 (racemic)
22 | 6.46 | O=C1CC(c2nc(-c3ccccc3)no2)CN1c1ccccc1 (configuration not stated)
23 | 7.24 | O=C1CC(c2nc(-c3ccccc3)no2)CN1c1ccc(F)cc1 (configuration not stated)
24 | 6.62 | Cc1cccc(-c2noc(C3CC(=O)N(c4ccc(C)c(Cl)c4)C3)n2)c1 (configuration not stated)

Same assay, conditions: HEK293-A

Row | Structure (SMILES) | Emax
25 | O=C1CC(c2nc(-c3cccc(C(F)(F)F)c3)no2)CN1c1ccc(F)cc1 (configuration not stated) | 25%
26 | O=C1CC(c2nc(-c3ccc(F)cc3)no2)CN1c1ccc(Cl)c(Cl)c1 (configuration not stated) | 44%
27 | Cc1cccc(N2CC(c3nc(-c4cccc(Cl)c4)no3)CC2=O)c1 (configuration not stated) | 28%
28 | O=c1oc2ccccc2n1Cc1nc(-c2cccc(Cl)c2)no1 | 4%
29 | Cc1ccccc1N1CC(c2nc(-c3cccc(Cl)c3)no2)CC1=O (configuration not stated) | -29%
30 | O=C1CC(c2nc(-c3cccc(Cl)c3)no2)CN1c1ccccc1Cl (configuration not stated) | -31%
31 | O=C1CC(c2nc(-c3ccc(Cl)cc3)no2)CN1c1ccc(Cl)c(Cl)c1 (configuration not stated) | 44%
32 | Cc1cccc(-c2noc(C3CC(=O)N(c4ccc(Cl)c(Cl)c4)C3)n2)c1 (configuration not stated) | 65%
33 | O=C1CCc2ccc(Cl)cc2N1CCc1nc(-c2cccc(Cl)c2)no1 | -29%
34 | COc1cccc(-c2noc(C3CC(=O)N(c4ccc(Cl)cc4)C3)n2)c1 (configuration not stated) | 50%
35 | O=C1CC(c2nc(-c3cccc(Cl)c3)no2)CN1c1cccc(Cl)c1 (configuration not stated) | -18%
36 | COc1ccccc1N1CC(c2nc(-c3cccc(Cl)c3)no2)CC1=O (configuration not stated) | -31%
37 | Cc1ccc(N2CC(c3nc(-c4cccc(C)c4)no3)CC2=O)cc1 (configuration not stated) | 150%
38 | Cc1ccc(N2CC(c3nc(-c4cccc(Cl)c4)no3)CC2=O)cc1 (configuration not stated) | 69%
39 | O=C1CC(c2nc(-c3cccc(Cl)c3)no2)CN1c1ccccc1F (configuration not stated) | -29%
40 | O=C1CC(c2nc(-c3cccc(Cl)c3)no2)CN1c1ccc(Cl)c(Cl)c1 (configuration not stated) | 51%

Other lines, results leading:

Row | Emax | Structure (SMILES)
41 | 57% | Cc1ccc(N2CC(c3nc(-c4cccc(Cl)c4)no3)CC2=O)cc1C (configuration not stated)
42 | 140% | O=C1CC(c2nc(-c3cccc(F)c3)no2)CN1c1ccc(F)cc1 (configuration not stated)
43 | 42% | O=C1CC(c2nc(-c3ccccc3)no2)CN1c1ccccc1 (configuration not stated)
44 | 130% | O=C1CC(c2nc(-c3ccccc3)no2)CN1c1ccc(F)cc1 (configuration not stated)
45 | 90% | Cc1cccc(-c2noc(C3CC(=O)N(c4ccc(C)c(Cl)c4)C3)n2)c1 (configuration not stated)

Molecular target: T1, Metabotropic glutamate receptor 5
Test: Negative allosteric modulation of human mGluR5 expressed in HEK293A cells assessed as inhibition of glutamate-induced calcium flux by FLIPR method
Type: functional, cell-based, HEK293-A
Settings: not given

Row | Structure (SMILES) | pIC50
46 | Cc1cccc(N2CC(c3nc(-c4cccc(Cl)c4)no3)CC2=O)c1 (configuration not stated) | 5.64
47 | O=c1oc2ccccc2n1Cc1nc(-c2cccc(Cl)c2)no1 | 5.68
48 | Cc1ccccc1N1CC(c2nc(-c3cccc(Cl)c3)no2)CC1=O (configuration not stated) | 6.43
49 | O=C1CC(c2nc(-c3cccc(Cl)c3)no2)CN1c1ccccc1Cl (configuration not stated) | 6.17
50 | O=C1CCc2ccc(Cl)cc2N1CCc1nc(-c2cccc(Cl)c2)no1 | 6.26
51 | O=C1CC(c2nc(-c3cccc(Cl)c3)no2)CN1c1cccc(Cl)c1 (configuration not stated) | 5.96
52 | COc1ccccc1N1CC(c2nc(-c3cccc(Cl)c3)no2)CC1=O (configuration not stated) | 6.20
53 | Cc1ccc(N2CC(c3nc(-c4cccc(Cl)c4)no3)CC2=O)cc1 (configuration not stated) | < 5.00
54 | O=C1CC(c2nc(-c3cccc(Cl)c3)no2)CN1c1ccccc1F (configuration not stated) | 5.96
55 | O=C1CC(c2nc(-c3cccc(Cl)c3)no2)CN1c1ccc(Cl)c(Cl)c1 (configuration not stated) | < 5.00

Second part, the molecule after the results:

Row | pIC50 | Structure (SMILES)
56 | < 5.00 | O=C1CC(c2nc(-c3cccc(Cl)c3)no2)CN1c1ccc(F)cc1 (racemic)
57 | < 5.00 | Cc1ccc(N2CC(c3nc(-c4cccc(Cl)c4)no3)CC2=O)cc1C (configuration not stated)

Same assay, conditions: HEK293-A, concentration not given here

Row | inhibition | Structure (SMILES)
58 | 85% | Cc1cccc(N2CC(c3nc(-c4cccc(Cl)c4)no3)CC2=O)c1 (configuration not stated)
59 | 50% | O=c1oc2ccccc2n1Cc1nc(-c2cccc(Cl)c2)no1
60 | 91% | Cc1ccccc1N1CC(c2nc(-c3cccc(Cl)c3)no2)CC1=O (configuration not stated)
61 | 93% | O=C1CC(c2nc(-c3cccc(Cl)c3)no2)CN1c1ccccc1Cl (configuration not stated)
62 | 82% | O=C1CCc2ccc(Cl)cc2N1CCc1nc(-c2cccc(Cl)c2)no1
63 | 68% | O=C1CC(c2nc(-c3cccc(Cl)c3)no2)CN1c1cccc(Cl)c1 (configuration not stated)
64 | 93% | COc1ccccc1N1CC(c2nc(-c3cccc(Cl)c3)no2)CC1=O (configuration not stated)
65 | -2.5% | Cc1ccc(N2CC(c3nc(-c4cccc(Cl)c4)no3)CC2=O)cc1 (configuration not stated)
66 | 89% | O=C1CC(c2nc(-c3cccc(Cl)c3)no2)CN1c1ccccc1F (configuration not stated)
67 | 8.3% | O=C1CC(c2nc(-c3cccc(Cl)c3)no2)CN1c1ccc(Cl)c(Cl)c1 (configuration not stated)

Test system: not listed separately
Test: Solubility of the compound in […] by UPLC method
Type: physicochemical
Settings: not given

Row | solubility | Structure (SMILES)
68 | 15 µM (≈ 5.37 µg/mL) | O=C1CC(c2nc(-c3cccc(Cl)c3)no2)CN1c1ccc(F)cc1 (racemic)
69 | 2.7 µM (≈ 0.911 µg/mL) | Cc1cccc(-c2noc(C3CC(=O)N(c4ccc(F)cc4)C3)n2)c1 (racemic)

Molecular target: T1, Metabotropic glutamate receptor 5
Test: Displacement of [3H]NAM from mGluR5
Settings: not given
Target sequence in this assay (P41594 whole entry): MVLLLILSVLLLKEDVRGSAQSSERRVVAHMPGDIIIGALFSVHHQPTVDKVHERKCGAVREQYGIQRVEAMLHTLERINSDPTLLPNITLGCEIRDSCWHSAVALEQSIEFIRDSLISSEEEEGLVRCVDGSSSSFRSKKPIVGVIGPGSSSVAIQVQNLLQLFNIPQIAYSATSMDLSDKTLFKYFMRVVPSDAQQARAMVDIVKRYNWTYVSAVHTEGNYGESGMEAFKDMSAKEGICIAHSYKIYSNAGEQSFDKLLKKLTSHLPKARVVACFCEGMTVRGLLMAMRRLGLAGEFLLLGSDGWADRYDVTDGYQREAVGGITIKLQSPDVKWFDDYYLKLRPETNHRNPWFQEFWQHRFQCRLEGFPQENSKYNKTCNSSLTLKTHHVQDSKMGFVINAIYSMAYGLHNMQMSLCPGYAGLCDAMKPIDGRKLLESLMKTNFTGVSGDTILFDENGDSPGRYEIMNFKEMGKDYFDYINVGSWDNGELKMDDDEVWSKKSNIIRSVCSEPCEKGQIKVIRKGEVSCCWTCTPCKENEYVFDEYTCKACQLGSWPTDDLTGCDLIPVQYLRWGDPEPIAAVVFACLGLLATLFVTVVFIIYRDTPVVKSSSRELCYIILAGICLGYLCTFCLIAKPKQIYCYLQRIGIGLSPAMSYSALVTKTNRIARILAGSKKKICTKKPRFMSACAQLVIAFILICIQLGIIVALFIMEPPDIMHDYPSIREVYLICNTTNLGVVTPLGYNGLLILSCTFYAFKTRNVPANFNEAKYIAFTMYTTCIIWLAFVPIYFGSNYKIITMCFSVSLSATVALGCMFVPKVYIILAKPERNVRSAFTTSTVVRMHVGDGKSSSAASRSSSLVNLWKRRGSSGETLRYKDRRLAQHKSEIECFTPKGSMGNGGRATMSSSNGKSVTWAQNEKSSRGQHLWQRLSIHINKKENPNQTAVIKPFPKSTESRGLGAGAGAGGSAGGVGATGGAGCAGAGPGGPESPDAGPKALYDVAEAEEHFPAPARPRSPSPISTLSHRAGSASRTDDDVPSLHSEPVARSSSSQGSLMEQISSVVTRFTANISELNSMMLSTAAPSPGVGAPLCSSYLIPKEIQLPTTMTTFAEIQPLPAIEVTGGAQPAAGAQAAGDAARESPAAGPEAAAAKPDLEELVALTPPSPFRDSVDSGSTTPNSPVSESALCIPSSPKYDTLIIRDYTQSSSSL

Row | pKi | Structure (SMILES)
70 | 6.39 | O=C1CC(c2nc(-c3cccc(Cl)c3)no2)CN1c1ccc(F)cc1 (racemic)
71 | 6.82 | O=C1CC(c2nc(-c3cccc(Cl)c3)no2)CN1c1ccc(F)cc1 (single isomer, unassigned; (-))

Molecular target: T2, Cytochrome P450 1A2 (Homo sapiens, UniProt P05177)
T2 sequence (P05177 whole entry): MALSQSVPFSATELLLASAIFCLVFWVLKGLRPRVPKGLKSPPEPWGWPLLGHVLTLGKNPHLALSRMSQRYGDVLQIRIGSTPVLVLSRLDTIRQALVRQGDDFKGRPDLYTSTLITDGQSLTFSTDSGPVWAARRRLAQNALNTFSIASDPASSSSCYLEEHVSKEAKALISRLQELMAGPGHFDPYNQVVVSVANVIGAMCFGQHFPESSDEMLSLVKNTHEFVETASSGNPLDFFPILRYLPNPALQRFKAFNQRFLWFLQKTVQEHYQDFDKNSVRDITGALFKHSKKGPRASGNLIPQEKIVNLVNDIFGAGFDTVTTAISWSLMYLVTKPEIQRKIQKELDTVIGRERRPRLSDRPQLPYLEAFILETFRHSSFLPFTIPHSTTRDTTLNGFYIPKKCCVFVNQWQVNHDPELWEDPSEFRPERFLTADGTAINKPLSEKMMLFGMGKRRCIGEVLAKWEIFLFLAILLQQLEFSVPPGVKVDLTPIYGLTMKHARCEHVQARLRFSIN
Test: Inhibition of CYP1A2
Type: ADME
Settings: not given

Row | pIC50 | Structure (SMILES)
72 | < 4.96 | Cc1cccc(-c2noc(C3CC(=O)N(c4ccc(F)cc4)C3)n2)c1 (racemic)

Molecular target: Cytochrome P450 2C9 (Homo sapiens, UniProt P11712)
Sequence (P11712 whole entry): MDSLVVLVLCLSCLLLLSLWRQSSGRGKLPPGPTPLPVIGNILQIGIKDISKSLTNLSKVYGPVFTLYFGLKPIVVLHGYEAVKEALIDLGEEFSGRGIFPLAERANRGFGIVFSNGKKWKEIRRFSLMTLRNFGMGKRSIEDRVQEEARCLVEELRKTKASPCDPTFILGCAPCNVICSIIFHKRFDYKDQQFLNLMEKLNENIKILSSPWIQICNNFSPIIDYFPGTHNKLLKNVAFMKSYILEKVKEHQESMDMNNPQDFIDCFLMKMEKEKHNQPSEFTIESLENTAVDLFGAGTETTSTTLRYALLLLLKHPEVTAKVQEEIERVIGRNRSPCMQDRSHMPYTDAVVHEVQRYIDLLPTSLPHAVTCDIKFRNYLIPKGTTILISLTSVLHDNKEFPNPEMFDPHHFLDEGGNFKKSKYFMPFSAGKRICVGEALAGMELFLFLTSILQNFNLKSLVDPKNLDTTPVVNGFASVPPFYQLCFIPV
Test: Inhibition of CYP2C9
Type: ADME
Settings: not given

Row | pIC50 | Structure (SMILES)
73 | < 4.96 | Cc1cccc(-c2noc(C3CC(=O)N(c4ccc(F)cc4)C3)n2)c1 (racemic)

Molecular target: Cytochrome P450 2C19 (Homo sapiens, UniProt P33261)
Sequence (P33261 whole entry): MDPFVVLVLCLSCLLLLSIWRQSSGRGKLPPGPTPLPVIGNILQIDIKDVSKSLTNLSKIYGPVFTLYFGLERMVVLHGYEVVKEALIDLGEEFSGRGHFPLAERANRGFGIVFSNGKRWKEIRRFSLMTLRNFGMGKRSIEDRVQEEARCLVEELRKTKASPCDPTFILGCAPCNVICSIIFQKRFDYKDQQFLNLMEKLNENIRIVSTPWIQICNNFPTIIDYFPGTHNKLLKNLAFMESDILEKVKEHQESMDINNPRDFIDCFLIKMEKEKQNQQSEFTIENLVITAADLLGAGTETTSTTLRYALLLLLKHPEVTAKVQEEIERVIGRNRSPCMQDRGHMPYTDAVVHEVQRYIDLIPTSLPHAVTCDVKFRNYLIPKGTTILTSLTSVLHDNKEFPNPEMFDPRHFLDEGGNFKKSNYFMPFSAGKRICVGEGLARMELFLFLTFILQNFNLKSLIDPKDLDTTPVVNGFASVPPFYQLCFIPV
Test: Inhibition of CYP2C19
Type: ADME
Settings: not given

Row | pIC50 | Structure (SMILES)
74 | < 4.96 | Cc1cccc(-c2noc(C3CC(=O)N(c4ccc(F)cc4)C3)n2)c1 (racemic)

Molecular target: Cytochrome P450 2D6 (Homo sapiens, UniProt P10635)
Sequence (P10635 whole entry): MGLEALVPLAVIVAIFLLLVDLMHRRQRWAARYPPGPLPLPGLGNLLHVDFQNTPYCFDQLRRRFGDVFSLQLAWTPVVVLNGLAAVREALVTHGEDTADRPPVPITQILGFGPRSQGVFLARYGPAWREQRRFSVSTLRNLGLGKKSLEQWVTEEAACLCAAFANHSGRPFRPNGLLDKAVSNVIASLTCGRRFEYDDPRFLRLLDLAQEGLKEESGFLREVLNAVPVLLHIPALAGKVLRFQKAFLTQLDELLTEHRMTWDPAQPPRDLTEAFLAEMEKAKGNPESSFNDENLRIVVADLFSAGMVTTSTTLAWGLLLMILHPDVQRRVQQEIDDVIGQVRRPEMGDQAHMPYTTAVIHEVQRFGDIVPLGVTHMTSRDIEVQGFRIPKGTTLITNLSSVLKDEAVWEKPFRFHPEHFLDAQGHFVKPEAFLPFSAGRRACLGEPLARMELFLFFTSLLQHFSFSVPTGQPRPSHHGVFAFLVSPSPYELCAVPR
Test: Inhibition of CYP2D6
Type: ADME
Settings: not given

Row | pIC50 | Structure (SMILES)
75 | < 4.96 | Cc1cccc(-c2noc(C3CC(=O)N(c4ccc(F)cc4)C3)n2)c1 (racemic)

Molecular target: Cytochrome P450 3A4 (Homo sapiens, UniProt P08684)
Sequence (P08684 whole entry): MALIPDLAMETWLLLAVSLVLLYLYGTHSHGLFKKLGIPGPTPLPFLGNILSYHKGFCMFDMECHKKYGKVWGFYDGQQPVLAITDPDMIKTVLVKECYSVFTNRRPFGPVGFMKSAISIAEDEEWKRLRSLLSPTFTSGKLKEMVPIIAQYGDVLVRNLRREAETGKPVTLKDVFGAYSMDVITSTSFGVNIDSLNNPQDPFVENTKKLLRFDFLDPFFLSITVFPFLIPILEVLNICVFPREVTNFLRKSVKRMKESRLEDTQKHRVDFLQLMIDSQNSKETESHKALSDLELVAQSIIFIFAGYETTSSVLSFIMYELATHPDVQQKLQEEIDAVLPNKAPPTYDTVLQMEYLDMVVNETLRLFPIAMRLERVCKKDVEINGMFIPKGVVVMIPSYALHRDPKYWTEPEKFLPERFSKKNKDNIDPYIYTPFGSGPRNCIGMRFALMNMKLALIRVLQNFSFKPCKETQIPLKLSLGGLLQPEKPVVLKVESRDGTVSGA
Test: Inhibition of CYP3A4
Type: ADME
Settings: not given

Row | pIC50 | Structure (SMILES)
76 | < 4.96 | Cc1cccc(-c2noc(C3CC(=O)N(c4ccc(F)cc4)C3)n2)c1 (racemic)

Test system: not listed separately
Test: Drug uptake in rat brain at 10 mg/kg, ip administered as single dose after 1 hr
Type: ADME, organism-based
Design: dose 10 mg/kg, route intraperitoneal
Settings: read-out: Drug uptake

Row | concentration at 1 h | Structure (SMILES)
77 | 86 ng/g | O=C1CC(c2nc(-c3cccc(Cl)c3)no2)CN1c1ccc(F)cc1 (racemic)

Test system: not listed separately
Test: Plasma concentration in rat at 10 mg/kg, ip administered as single dose after 1 hr
Type: ADME, organism-based
Design: dose 10 mg/kg, route intraperitoneal
Settings: not given

Row | concentration at 1 h | Structure (SMILES)
78 | 22 ng/mL | O=C1CC(c2nc(-c3cccc(Cl)c3)no2)CN1c1ccc(F)cc1 (racemic)

Test system: Liver
Test: Intrinsic clearance in human liver
Type: ADME, tissue-based
Settings: not given

Row | CLH | Structure (SMILES)
79 | 0.6 L/min | O=C1CC(c2nc(-c3cccc(Cl)c3)no2)CN1c1ccc(F)cc1 (racemic)
80 | 2.7 L/min | Cc1cccc(-c2noc(C3CC(=O)N(c4ccc(F)cc4)C3)n2)c1 (racemic)

Test system: Liver
Test: Intrinsic clearance in rat liver
Type: ADME, tissue-based
Settings: not given

Row | CLH | Structure (SMILES)
81 | 22 mL/min | O=C1CC(c2nc(-c3cccc(Cl)c3)no2)CN1c1ccc(F)cc1 (racemic)
82 | 27 mL/min | Cc1cccc(-c2noc(C3CC(=O)N(c4ccc(F)cc4)C3)n2)c1 (racemic)
